In brackets after ≈: the same amount, converted by molar mass. Where two headings read alike, the source gives them in different places.
What was measured:
[1] = system: E. coli BW25113 isogenic mutant deficient in acrA mediated efflux; test: broth microdilution minimum inhibition concentration assay; assay type: cell-based; settings: Escherichia coli, BW25113, read-out: E. coli KO MIC
Procedure: (§1) Exemplary compounds from the above Examples were tested to determine their minimum inhibitory concentration (MIC) for exemplary strains of Eschericia and Pseudomonas bacteria using broth microdilution methods. Assay procedures and results are described below.
(§2) Broth microdilution assays were conducted according to Clinical and Laboratory Standards Institute guidelines (CLSI, M07-A11: Clinical and Laboratory Standards Institute. Methods for Dilution Antimicrobial Susceptibility Tests for Bacteria that Grow Aerobically; Approved Standard—11th Edition. Wayne, PA: CLSI, 2018.). Briefly, a 0.5 McFarland standard suspension was made from bacterial isolates on non-selective, solid media. The inocula were adjusted to give a bacterial concentration of 1×10^6 CFU/mL. Serial doubling-dilutions of each compound were prepared in cation-adjusted Mueller-Hinton broth (Sigma-Aldrich) in 96-well microdilution plates. A 50 μL aliquot of the inoculum was added to each microdilution plate and, within 15 minutes, incubated at 37° C. in air for 16-20 h. […] The test was controlled by the determination of piperacillin MIC against both E. coli ATCC 25922 and P. aeruginosa ATCC 27853 and ensuring accordance with the ranges published in CLSI supplementary document M100 (CLSI, M100Ed29: Clinical and Laboratory Standards Institute. Performance Standards for Antimicrobial Susceptibility Testing, 29th Edition. Wayne, PA: CLSI, 2018.).
(§3) Multiple enterobacteriaceae strains were tested, including E. coli ATCC 25922 and K. pneumoniae ATCC 43816. WT E. coli BW25113 was tested with an isogenic mutant deficient in acrA mediated efflux by clean deletion. WT P. aeruginosa PAO1 was tested with an isogenic mutant deficient in MexA mediated efflux by clean deletion.
(§4) Experimental results are provided in Table 4, which provides MIC values for wild-type E. coli BW25113 (“E. coli WT MIC”), an isogenic mutant deficient in acrA mediated efflux by clean deletion (“E. coli KO MIC”), wild-type P. aeruginosa PAO1 (“P. aeruginosa WT MIC”), and an isogenic mutant deficient in MexA mediated efflux by clean deletion (“[…]”).

[2] = system: P. aeruginosa PAO1 isogenic mutant deficient in MexA mediated efflux; test: as above; assay type: cell-based; settings: Pseudomonas aeruginosa, PAO1, read-out: P. aeruginosa KO MIC
Procedure: as §1, §2, §3, §4

[3] = system: wild-type E. coli BW25113; test: as above; assay type: cell-based; settings: Escherichia coli; wild-type E. coli BW25113, 37° C. 16-20 h; read-out: E. coli WT MIC
Procedure: as §1, §2, §3, §4

[4] = system: wild-type P. aeruginosa PAO1; test: as above; assay type: cell-based; settings: Pseudomonas aeruginosa
Procedure: as §1, §2, §3, §4

[5] = molecular target: P. aeruginosa LpxC (Pseudomonas aeruginosa (strain ATCC 15692 / DSM 22644 / CIP 104116 / JCM 14847 / LMG 12228 / 1C / PRS 101 / PAO1), UniProt P47205); test: biochemical; assay type: biochemical; settings: 5 nM P. aeruginosa LpxC, 2.5 μM substrate, 1 hour at room temperature
Procedure: (§5) Exemplary compounds from the above Examples were tested for ability to inhibit LpxC activity using an in vitro substrate deacetylation assay with ADDA™ analysis. Assay procedures and results are described below.
(§6) For ADDA™ analysis, an aliquot of assay sample was withdrawn from each well of the 384-well plate and applied to a Hypercarb cartridge (Optimize Technologies, USA) under conditions designed to retain analytes of interest. Analytes were eluted using 1:1:2 acetone:acetonitrile:water containing 5 mM ammonium acetate then analysed by triple-quadrupole mass spectrometry. Mass spectrometry was carried out using electrospray ionization in negative ion mode.
For IC50 determinations, peak areas of the substrate and product were compared to compute the proportion of substrate reacted by the LpxC enzyme at each compound concentration.

[6] = molecular target: E. coli LpxC (Escherichia coli (strain K12), UniProt P0A725); test: in vitro substrate deacetylation assay for inhibition of LpxC (ADDA analysis); assay type: biochemical; settings: 5 nM E. coli LpxC, 2.5 μM substrate, 1 hour at room temperature
Procedure: as §5
Dilutions of test compound were pre-incubated with 5 nM P. aeruginosa or E. coli LpxC for 10 minutes at room temperature in 50 mM NaH2PO4, 500 mM sucrose, 0.2 mg/mL BSA, pH 7.2 and <1% DMSO. Reactions were initiated by the addition of 2× substrate (UDP-3-O—(R-3-hydroxydecanoyl)-N-acetylglucosamine, Carbosynth Ltd, UK, for P. aeruginosa LpxC and UDP-3-O—(R-3-hydroxymyristoyl)-N-acetylglucosamine, BOC Sciences, USA, for E. coli LpxC), in 50 mM NaH2PO4, 0.5 mg/mL BSA, pH 7.2, to a final concentration of 2.5 μM. Reactions proceeded for 1 hour at room temperature prior to quenching with and equal volume of 2% acetic acid.
as §6, with “mode. Daughter ion peaks representing detected substrate (P. aeruginosa: parent Q1 mass=775.8 amu, daughter Q3 mass=384.7 amu E. coli: parent Q1 mass=833.0 amu, daughter Q3 mass=385.0 amu, collision energy=analyte specific, dwell time=50 ms) were identified using a multiple-reaction monitoring protocol.” for “mode.”
Total activity (0% inhibition) was obtained from reactions containing no compound, and 100% inhibition is defined as reactions in the presence of 1 μM CHIR-090 (N-[(1S,2R)-2-hydroxy-1-[(hydroxyamino)carbonyl]propyl]-4-[2-[4-(4-morpholinylmethyl)phenyl]ethynyl]-benzamide). For IC50 determinations, peak areas of the substrate and product were compared to compute the proportion of substrate reacted by the LpxC enzyme at each compound concentration. The fractional activity was converted to percentage inhibition and plotted against compound concentration in ActivityBase™ and fit using a four-parameter logistic using non-linear regression to yield the IC50 value.

[7] = wild-type P. aeruginosa PAO1, 37° C. 16-20 h, read-out: P. aeruginosa WT MIC
[8] = PAO1, read-out: P. aeruginosa WT MIC

Sequence of E. coli LpxC (P0A725 whole entry): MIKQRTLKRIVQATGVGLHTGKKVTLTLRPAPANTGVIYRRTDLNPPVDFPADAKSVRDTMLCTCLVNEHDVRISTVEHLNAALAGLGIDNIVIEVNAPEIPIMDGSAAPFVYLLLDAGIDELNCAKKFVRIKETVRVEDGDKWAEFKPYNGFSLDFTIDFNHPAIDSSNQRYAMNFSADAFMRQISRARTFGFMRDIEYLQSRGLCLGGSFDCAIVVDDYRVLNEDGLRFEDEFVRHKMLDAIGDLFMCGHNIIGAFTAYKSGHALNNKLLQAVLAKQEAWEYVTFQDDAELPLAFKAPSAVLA

Row | Structure (SMILES) | MIC [1] [µM] | MIC [2] [µM] | MIC [3] [µM] | MIC [4, 7] [µM] | IC50 [5] [nM] | IC50 [6] [nM] | MIC [4, 8] [µM]
1 | CS(=O)(=O)N1C[C@H](NC(=O)[C@@H]2C[C@H](F)CN2)C[C@@H]1C(=O)NCc1ccc(C#Cc2ccc(CN3CCOCC3)cc2)cc1 [Example 9AI, (2R,4R)-4-((2S,4S)-4-Fluoropyrrolidine-2-carboxamido)-1-(methylsulfonyl)-N-(4-((4-(morpholinomethyl)phenyl)ethynyl)benzyl)pyrrolidine-2-carboxamide] | 20 to 100 (≈ 12.2 to 61.2 µg/mL) | < 20 | > 100 | > 100 | < 50 | < 500 | –
2 | O=C(N[C@@H]1C[C@H](C(=O)NCc2ccc(C#Cc3ccc(CN4CCOCC4)cc3)cc2)N(C(=O)C2CC2)C1)[C@@H]1C[C@H](F)CN1 [Example 9AJ] | < 20 | < 20 | 20 to 100 (≈ 12 to 60.2 µg/mL) | > 100 | < 50 | < 500 | –
3 | COCCN1C[C@H](NC(=O)[C@@H]2C[C@H](F)CN2)C[C@@H]1C(=O)NCc1ccc(C#CC#CC2CC2)cc1 [Example 9AM, (2R,4R)—N-(4-(Cyclopropylbuta-1,3-diyn-1-yl)benzyl)-4-((2S,4S)-4-fluoropyrrolidine-2-carboxamido)-1-(2-methoxyethyl)pyrrolidine-2-carboxamide] | > 100 | > 100 | > 100 | – | 100 to 1000 | 2500 to 10000 | > 100
4 | O=C(O)CN1C[C@H](NC(=O)[C@@H]2C[C@H](F)CN2)C[C@@H]1C(=O)NCc1ccc(C#CC#CC2CC2)cc1 [Example 9AN, 2-((2R,4R)-2-((4-(Cyclopropylbuta-1,3-diyn-1-yl)benzyl)carbamoyl)-4-((2S,4S)-4-fluoropyrrolidine-2-carboxamido)pyrrolidin-1-yl)acetic acid] | > 100 | 20 to 100 (≈ 9.61 to 48.1 µg/mL) | > 100 | – | 50 to 100 | < 500 | > 100
5 | O=C(O)CCN1C[C@H](NC(=O)[C@@H]2C[C@H](F)CN2)C[C@@H]1C(=O)NCc1ccc(C#CC#CC2CC2)cc1 [Example 9AO] | > 100 | > 100 | > 100 | – | 100 to 1000 | 2500 to 10000 | > 100
6 | CS(=O)(=O)CCN1C[C@H](NC(=O)[C@@H]2C[C@H](F)CN2)C[C@@H]1C(=O)NCc1ccc(C#CC#CC2CC2)cc1 [Example 9AP] | > 100 | > 100 | > 100 | – | 100 to 1000 | 500 to 2500 | > 100
7 | O=C(N[C@@H]1C[C@H](C(=O)NCc2ccc(C#CC#CC3CC3)cc2)N(CCO)C1)[C@@H]1C[C@H](F)CN1 [Example 9AQ] | > 100 | > 100 | > 100 | – | 100 to 1000 | 2500 to 10000 | > 100
8 | CNC(=O)N1C[C@H](NC(=O)[C@@H]2C[C@H](F)CN2)C[C@@H]1C(=O)NCc1ccc(C#Cc2ccc(CN3CCOCC3)cc2)cc1 [Example 9AR] | 20 to 100 (≈ 11.8 to 59.1 µg/mL) | < 20 | > 100 | > 100 | < 50 | < 500 | –

From patent US20250171400A1, “AZA-HETEROCYCLYL CARBOXAMIDE AND RELATED COMPOUNDS AND THEIR USE IN TREATING MEDICAL CONDITIONS” (X-BIOTIX THERAPEUTICS, INC., priority 2021, published 2025)
